Source: patent US10532053B2, “Histone deacetylase inhibitor, and preparation method and use thereof” (GUANGDONG ZHONGSHENG PHARMACEUTICAL CO., LTD, priority 2015, dated 2020)
Read-outs that look alike come from different tables or passages of the source.

Key:
HDAC1 = biological target: T1, HDAC1 (Homo sapiens, UniProt Q13547); experiment: HDAC inhibitory activity, fluorescence-coupled acetylated peptide substrate assay (Lys-Ac-AMC); assay type: biochemical
T1 construct: purchased BPS Bioscience
Experimental: (§2) The HDAC inhibitory activity was determined by fluorescence-coupled acetylated peptide substrate assay (Lys-Ac-AMC). HDAC1 protein was purchased from BPS Bioscience, and the reaction buffer system was a modified tris(hydroxymethyl)aminomethane buffer (pH 7.0). The small molecule compounds of the present invention were prepared by being dissolved in 100% DMSO. HDAC was prepared in a buffer at a certain concentration as an enzyme solution; trypsin and fluorescent group 4-amino-7-coumarin coupled-acetylated peptide (Ac-peptide) substrate were prepared in a buffer at a certain concentration as a substrate solution. The compounds were added into the reaction wells in a 384-well plate at a designed concentration of 10 μM, 1 μM, 0.5 μM, 0.1 μM, 0.05 μM, 0.01 μM, 0.005 μM, 0.001 μM, and 0.00005 μM, respectively, and then 15 μl of the HDAC solution was added into the reaction wells (15 μl of blank buffer to the control well). […] The results were analyzed by GraphPad Prism software and IC50 values were calculated according to the formula: Y=Background Data+(Top Data−Background Data)/(1+10^((Log IC50−X) a curve slope)), where Y: the inhibition rate (%) and X: the concentration of the compound.

B-cell lymphoma Ramos = experiment: Cell proliferative activity (MTT / cck-8); assay type: cell-based; conditions: Homo sapiens, read-out: Half-Inhibitory Concentration IC50 Ramos
Procedure, shortened: (§1)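 Cultures grown to log phase under standard conditions are plated at 2000-3000 cells per well. Proliferative activity is measured by CCK-8 in the haematologic model lines and by MTT in the solid-tumour lines.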

[1] = system: Human cervical cancer cell Hela; experiment: Cell proliferative activity (MTT / cck-8); assay type: cell-based
Procedure, shortened: as §1

[2] = system: Human liver cancer cell HepG2; experiment: Cell proliferative activity (MTT / cck-8); assay type: cell-based
Procedure, shortened: as §1

[3] = system: Human lung cancer cell H460; experiment: Cell proliferative activity (MTT / cck-8); assay type: cell-based
Procedure, shortened: as §1

Human melanoma A375 = experiment: Cell proliferative activity (MTT / cck-8); assay type: cell-based; conditions: A-375, incubated for 96 hours, read-out: Half-Inhibitory Concentration IC50 Human melanoma A375
Procedure, shortened: as §1

[4] = system: Human ovarian cancer cell SKOV-3; experiment: Cell proliferative activity (MTT / cck-8); assay type: cell-based
Procedure, shortened: as §1

Leukemia K562 = experiment: Cell proliferative activity (MTT / cck-8); assay type: cell-based; conditions: Homo sapiens, read-out: Half-Inhibitory Concentration IC50 K562
Procedure, shortened: as §1

Leukemia MV4-11 = experiment: Cell proliferative activity (MTT / cck-8); assay type: cell-based; conditions: Homo sapiens, read-out: Half-Inhibitory Concentration IC50 MV4-11
Procedure, shortened: as §1

[5] = system: Multiple myeloma RPMI8226; experiment: Cell proliferative activity (MTT / cck-8); assay type: cell-based; conditions: Homo sapiens, RPMI-8226, read-out: Half-Inhibitory Concentration IC50 RPMI8226
Procedure, shortened: as §1

Multiple myeloma U266 = experiment: Cell proliferative activity (MTT / cck-8); assay type: cell-based; conditions: Homo sapiens, U-266, read-out: Half-Inhibitory Concentration IC50 U266
Procedure, shortened: as §1

Ovarian cancer A2780s = experiment: Cell proliferative activity (MTT / cck-8); assay type: cell-based; conditions: Homo sapiens, read-out: Half-Inhibitory Concentration IC50 A2780s
Breast cancer SKBR3 = experiment: Cell proliferative activity (MTT / cck-8); assay type: cell-based; conditions: Homo sapiens, SK-BR-3, read-out: Half-Inhibitory Concentration IC50 SKBR3
Colon cancer HT29 = experiment: Cell proliferative activity (MTT / cck-8); assay type: cell-based; conditions: Homo sapiens, HT-29, read-out: Half-Inhibitory Concentration IC50 HT29
HBL-1 cells = experiment: Therapeutic effect on the B-cell lymphoma HBL-1 subcutaneous tumor model; assay type: in vivo, NOD/SCID mice; conditions: HBL-1 model, 9 times, vs solvent group
HDAC2 = HDAC2 (Homo sapiens, UniProt Q92769); conditions: read-out: IC50 HDAC2
Experimental: as §2

HDAC10 = HDAC10 (Homo sapiens, UniProt Q969S8); conditions: read-out: IC50 HDAC10; Table 4, Class IIb
Experimental: as §2

HCT116 cells [6] = experiment: Therapeutic effect on the colon cancer HCT116 model (intravenous)
HDAC8 = biological target: T2, HDAC8 (Homo sapiens, UniProt Q9BY41); experiment: HDAC inhibitory activity, fluorescence-coupled acetylated peptide substrate assay
T2 sequence (Q9BY41 1-377): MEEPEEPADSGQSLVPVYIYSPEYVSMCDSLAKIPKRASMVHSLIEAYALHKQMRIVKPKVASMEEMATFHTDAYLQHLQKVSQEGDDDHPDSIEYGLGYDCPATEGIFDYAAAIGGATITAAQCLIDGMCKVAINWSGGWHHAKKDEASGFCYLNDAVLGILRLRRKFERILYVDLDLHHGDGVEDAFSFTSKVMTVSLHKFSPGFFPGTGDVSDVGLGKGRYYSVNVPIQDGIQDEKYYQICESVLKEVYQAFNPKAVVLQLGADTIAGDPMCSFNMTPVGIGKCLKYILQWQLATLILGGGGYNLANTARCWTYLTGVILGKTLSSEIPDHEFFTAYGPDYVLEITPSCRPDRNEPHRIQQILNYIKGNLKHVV
Experimental: as §2

HCT116 cells [7] = experiment: Therapeutic effect on the colon cancer HCT116 subcutaneous tumor model (intragastric); conditions: 8 times, vs solvent group

T1 sequence (Q13547 whole entry): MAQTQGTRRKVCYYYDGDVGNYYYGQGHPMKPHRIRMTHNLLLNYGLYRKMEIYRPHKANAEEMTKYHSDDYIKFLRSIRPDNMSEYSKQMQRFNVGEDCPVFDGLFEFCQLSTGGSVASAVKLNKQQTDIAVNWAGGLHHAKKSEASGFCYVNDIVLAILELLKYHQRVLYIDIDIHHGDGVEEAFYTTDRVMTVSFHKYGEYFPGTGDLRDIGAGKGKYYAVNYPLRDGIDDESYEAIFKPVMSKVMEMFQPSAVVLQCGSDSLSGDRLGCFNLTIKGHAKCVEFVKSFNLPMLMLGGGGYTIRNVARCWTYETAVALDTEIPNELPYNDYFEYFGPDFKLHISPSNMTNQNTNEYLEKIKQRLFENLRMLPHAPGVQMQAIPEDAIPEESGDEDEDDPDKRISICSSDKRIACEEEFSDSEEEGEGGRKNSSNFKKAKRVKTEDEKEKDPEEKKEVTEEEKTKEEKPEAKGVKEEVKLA
HDAC2, sequence (Q92769 whole entry): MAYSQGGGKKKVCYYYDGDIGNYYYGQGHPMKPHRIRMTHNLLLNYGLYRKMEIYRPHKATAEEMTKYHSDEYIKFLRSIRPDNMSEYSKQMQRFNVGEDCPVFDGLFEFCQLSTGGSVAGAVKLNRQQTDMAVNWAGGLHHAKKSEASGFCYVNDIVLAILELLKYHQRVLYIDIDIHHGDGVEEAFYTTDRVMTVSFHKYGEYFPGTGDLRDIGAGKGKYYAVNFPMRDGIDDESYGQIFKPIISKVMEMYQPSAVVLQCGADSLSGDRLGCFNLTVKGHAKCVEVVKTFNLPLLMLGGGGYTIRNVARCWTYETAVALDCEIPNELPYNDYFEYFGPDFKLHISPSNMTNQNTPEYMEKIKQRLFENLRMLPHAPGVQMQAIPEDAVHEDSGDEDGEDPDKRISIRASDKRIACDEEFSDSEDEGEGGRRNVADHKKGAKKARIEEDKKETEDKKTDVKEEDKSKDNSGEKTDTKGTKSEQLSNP
HDAC10, sequence (Q969S8 whole entry): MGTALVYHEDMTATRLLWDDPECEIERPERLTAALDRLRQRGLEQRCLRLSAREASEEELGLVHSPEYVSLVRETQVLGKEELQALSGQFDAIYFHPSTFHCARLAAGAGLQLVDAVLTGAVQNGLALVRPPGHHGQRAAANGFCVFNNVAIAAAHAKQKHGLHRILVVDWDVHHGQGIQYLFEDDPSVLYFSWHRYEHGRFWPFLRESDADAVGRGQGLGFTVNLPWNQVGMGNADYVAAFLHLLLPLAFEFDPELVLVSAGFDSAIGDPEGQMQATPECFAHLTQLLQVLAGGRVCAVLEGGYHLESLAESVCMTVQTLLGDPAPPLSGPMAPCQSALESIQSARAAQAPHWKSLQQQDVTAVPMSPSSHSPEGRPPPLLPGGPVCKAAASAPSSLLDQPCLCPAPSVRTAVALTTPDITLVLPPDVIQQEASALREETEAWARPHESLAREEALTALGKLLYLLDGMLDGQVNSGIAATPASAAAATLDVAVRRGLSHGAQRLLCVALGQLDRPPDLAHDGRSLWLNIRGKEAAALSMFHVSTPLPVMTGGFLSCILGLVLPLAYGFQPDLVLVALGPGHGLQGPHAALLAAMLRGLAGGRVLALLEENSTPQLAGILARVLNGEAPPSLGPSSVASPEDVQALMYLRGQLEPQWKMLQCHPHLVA

COc1ccc(N(C)c2nc(C)nc3ccccc23)cc1OCCCC(=O)NO [III-2, N-hydroxy-4-(2-methoxy-5-(methyl(2-methyl-4-quinazolinyl)amino)phenoxy) butanamide]
IC50 (HDAC1; Table 2): 100 to 1000 nM
IC50 (HDAC1; Table 4, Class I): 422 ± 1 nM
IC50 (B-cell lymphoma Ramos): 71 ± 31 nM
IC50 ([1]; Cervical cancer, Table 5, read-out: Half-Inhibitory Concentration IC50 Hela): 49 ± 20 nM
IC50 ([1]; incubated for 96 hours, read-out: Half-Inhibitory Concentration IC50 Human cervical cancer cell Hela): 10 to 100 nM
IC50 ([2]; Liver cancer, Table 5, read-out: Half-Inhibitory Concentration IC50 HepG2): 41 ± 1 nM
IC50 ([2]; incubated for 96 hours, read-out: Half-Inhibitory Concentration IC50 Human liver cancer cell HepG2): 10 to 100 nM
IC50 ([3]; NCI-H460, Lung cancer, Table 5, read-out: Half-Inhibitory Concentration IC50 H460): 55 ± 13 nM
IC50 ([3]; NCI-H460, incubated for 96 hours, read-out: Half-Inhibitory Concentration IC50 Human lung cancer cell H460): 10 to 100 nM
IC50 (Human melanoma A375): 10 to 100 nM
IC50 ([4]; SK-OV-3, Ovarian cancer, Table 5, read-out: Half-Inhibitory Concentration IC50 SKOV-3): 50 ± 8 nM
IC50 ([4]; SK-OV-3, incubated for 96 hours, read-out: Half-Inhibitory Concentration IC50 Human ovarian cancer cell SKOV-3): 10 to 100 nM
IC50 (Leukemia K562): 63 ± 18 nM
IC50 (Leukemia MV4-11): 60 ± 32 nM
IC50 [5]: 15 ± 4 nM
IC50 (Multiple myeloma U266): 14 ± 6 nM
IC50 (Ovarian cancer A2780s): 46 ± 11 nM
IC50 (Breast cancer SKBR3): 22 ± 8 nM
IC50 (Colon cancer HT29): 72 ± 37 nM
tumor inhibitory rate (HBL-1 cells; 10 mg/kg intragastrically once every other day): 31.70%
tumor inhibitory rate (HBL-1 cells; 20 mg/kg intragastrically once every other day): 25.23%
tumor inhibitory rate (HBL-1 cells; 40 mg/kg intragastrically once every other day): 58.22%
tumor inhibitory rate (HBL-1 cells; 80 mg/kg intragastrically once every other day): 56.88%
IC50 (HDAC2): 386 ± 7 nM
IC50 (HDAC10): 1180 ± 168 nM
survival time of mice (HCT116 cells [6]; 50 mg/kg intravenously once every other day, 9 times, vs blank control, P<0.01): significantly prolonged the survival time of mice
effect prolonging the survival time compared with positive control group (HCT116 cells [6]; 50 mg/kg intravenously, SAHA 50 mg/kg intraperitoneally): superior to that of the positive control group
IC50 (HDAC8; IC50 HDAC8, Table 2): > 1000 nM
IC50 (HDAC8; read-out: IC50 HDAC8, Table 4, Class I): 3400 ± 487 nM
tumor inhibitory rate (HCT116 cells [7]; 6.25 mg/kg intragastrically once every other day): 51.28%
tumor inhibitory rate (HCT116 cells [7]; 12.5 mg/kg intragastrically once every other day): 58.64%
tumor inhibitory rate (HCT116 cells [7]; 25 mg/kg intragastrically once every other day): 60.37%
tumor inhibitory rate (HCT116 cells [7]; 50 mg/kg intragastrically once every other day): 66.05%
